Laboratory results taken from ChEMBL document CHEMBL1201862, “PubChem BioAssay data set” (2004).
Activity calls are given as the source filed them.

Target: T1, RNA-binding protein pos-1 (Caenorhabditis elegans, UniProt G5EF15)
T1 sequence (G5EF15 whole entry): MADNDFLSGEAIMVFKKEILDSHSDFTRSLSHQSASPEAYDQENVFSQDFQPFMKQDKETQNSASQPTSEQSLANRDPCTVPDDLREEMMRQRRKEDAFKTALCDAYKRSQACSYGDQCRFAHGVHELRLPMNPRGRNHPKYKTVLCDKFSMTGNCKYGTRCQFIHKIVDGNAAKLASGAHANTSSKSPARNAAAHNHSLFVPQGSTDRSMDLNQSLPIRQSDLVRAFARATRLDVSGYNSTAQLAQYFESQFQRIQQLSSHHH
Assay: disruptors of C. elegans POS-1 RNA interaction – biochemical, fluorescence polarization, dose response (AID 1964);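 further: purified POS-1 fused to maltose binding protein made in E. coli; potency of compounds blocking POS-1 binding to fluorescent RNA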
Details: not given

| SMILES | EC50 |
| --- | --- |
| ClCc1nc2ccccc2n1Cc1ccccc1 | 2.24 µM (inconclusive) |
| COc1ccc2c(-c3ccccc3)cc(SCC(N)=O)nc2c1 | > 300 µM (not active) |
| CCC(=O)Nc1cc(C)c(NC(=O)CCc2ccccc2)cn1 | 24 µM (active) |
| CC(C)(C)OC(=O)NCCCC1=CC2=CC(=O)C(C)(OC(=O)C3CCCC3)C(=O)C2=CO1 (stereo unspecified) | 18.8 µM (active) |
| O=C(Cn1cc(C=C2C(=O)NC(=O)NC2=O)c2ccccc21)NCC1CCCO1 (stereo unspecified) | 16.7 µM (active) |
| Cc1cc(C=C2C(=O)c3ccccc3C2=O)c(C)n1-c1ccc(Cl)cc1 | > 300 µM (not active) |
| Cc1cccn2c(=O)c3cc(C(=O)NCc4ccco4)c(=N)n(C(C)C)c3nc12 | 40.5 µM (active) |
| CCOCCCNc1nc2nc3ccc(C)cn3c(=O)c2cc1C(=O)NCC1CCCO1 (stereo unspecified) | > 300 µM (not active) |
| O=C(NCc1ccccn1)C1Nc2ccc(OC(F)(F)F)cc2C2C=CCC12 (stereo unspecified) | > 300 µM (not active) |
| O=[N+]([O-])c1cccc(-c2cn3nc(-c4ccccc4)c(-c4ccccc4)nc3n2)c1 | > 300 µM (not active) |
| O=C(N/N=C\c1ccc(-c2ccc(Cl)c(Cl)c2)o1)C(=O)N1CCCC1 | 49.5 µM (active) |

Test system: not listed separately
Assay: Luminescence Cell-Based Dose Response HTS to Identify Activators of Luciferase Translation or Activity in H4 […] Cells. [Related pubchem assays: 1829 (Project Summary), 1814 (Primary HTS)]
Assay type: functional
Details: not given

| SMILES | EC50 |
| --- | --- |
| O=C(Nc1nc(-c2ccccc2)ns1)c1cccs1 | 1.32 µM (active) |

Test system: H4
Assay: Luminescence Cell-Based Dose Response HTS to Identify Activators of 5'UTR Stem-Loop Driven Prion Protein mRNA Translation in H4 Neuroglioblastoma Cells. [Related pubchem assays: 1829 (Project Summary), 1814 (Primary HTS)]
Assay type: functional
Details: Homo sapiens

| SMILES | EC50 |
| --- | --- |
| O=C(Nc1nc(-c2ccccc2)ns1)c1cccs1 | > 120 µM (not active) |

Target: T2, Zinc finger protein mex-5 (Caenorhabditis elegans, UniProt Q9XUB2)
T2 sequence (Q9XUB2 whole entry): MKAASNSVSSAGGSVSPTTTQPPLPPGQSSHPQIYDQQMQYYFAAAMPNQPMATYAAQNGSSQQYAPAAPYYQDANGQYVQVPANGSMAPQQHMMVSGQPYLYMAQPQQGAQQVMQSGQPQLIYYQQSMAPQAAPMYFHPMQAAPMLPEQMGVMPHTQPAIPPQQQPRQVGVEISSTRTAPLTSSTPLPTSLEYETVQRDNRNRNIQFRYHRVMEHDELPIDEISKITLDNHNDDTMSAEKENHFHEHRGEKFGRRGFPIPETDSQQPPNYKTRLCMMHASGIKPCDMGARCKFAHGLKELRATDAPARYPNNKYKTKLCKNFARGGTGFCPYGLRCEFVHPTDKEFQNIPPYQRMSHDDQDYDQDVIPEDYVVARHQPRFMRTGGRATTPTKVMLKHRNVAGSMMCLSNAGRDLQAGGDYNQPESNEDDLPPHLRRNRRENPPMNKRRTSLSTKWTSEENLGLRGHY
Assay: potency of MEX-5 RNA-binding blockers – biochemical, C. elegans, fluorescence polarization, dose response (AID 1960)
Details: not given

| SMILES | EC50 |
| --- | --- |
| ClCc1nc2ccccc2n1Cc1ccccc1 | 3.93 µM (inconclusive) |
| COc1ccc2c(-c3ccccc3)cc(SCC(N)=O)nc2c1 | > 300 µM (not active) |
| CCC(=O)Nc1cc(C)c(NC(=O)CCc2ccccc2)cn1 | 26 µM (inconclusive) |
| CC(C)(C)OC(=O)NCCCC1=CC2=CC(=O)C(C)(OC(=O)C3CCCC3)C(=O)C2=CO1 (stereo unspecified) | 18.7 µM (active) |
| O=C(Cn1cc(C=C2C(=O)NC(=O)NC2=O)c2ccccc21)NCC1CCCO1 (stereo unspecified) | 10.1 µM (active) |
| Cc1cc(C=C2C(=O)c3ccccc3C2=O)c(C)n1-c1ccc(Cl)cc1 | > 300 µM (not active) |
| Cc1cccn2c(=O)c3cc(C(=O)NCc4ccco4)c(=N)n(C(C)C)c3nc12 | 45.5 µM (active) |
| CCOCCCNc1nc2nc3ccc(C)cn3c(=O)c2cc1C(=O)NCC1CCCO1 (stereo unspecified) | > 300 µM (not active) |
| O=C(NCc1ccccn1)C1Nc2ccc(OC(F)(F)F)cc2C2C=CCC12 (stereo unspecified) | > 300 µM (not active) |
| O=[N+]([O-])c1cccc(-c2cn3nc(-c4ccccc4)c(-c4ccccc4)nc3n2)c1 | 99 µM (active) |
| O=C(N/N=C\c1ccc(-c2ccc(Cl)c(Cl)c2)o1)C(=O)N1CCCC1 | 29.6 µM (active) |

Test system: not listed separately
Assay: Trypanosoma cruzi growth suppression in host cells – NIH3T3 host cells, beta-gal luminescence, confirmation (AID 2044);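 further: intracellular parasites grown in NIH/3T3 mouse fibroblasts as host cells; luminescent beta-galactosidase reporter signal from transgenic T. cruzi replicating inside host cells; inhibitors lower the luminescence signal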
Assay type: functional, cell-based
Details: not given

| SMILES | EC50 |
| --- | --- |
| Fc1ccc(Nc2c3c(nc4ccccc24)CCC3)cc1 | 2.48 µM (active) |

Test system: not listed separately
Assay: NIH3T3 cell viability loss – ATP luminescence, mouse fibroblasts, counter-screen, dose response (AID 2010);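 further: cells exposed to compound for about 90 hours before reading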
Assay type: functional, cell-based
Details: not given

| SMILES | EC50 |
| --- | --- |
| Fc1ccc(Nc2c3c(nc4ccccc24)CCC3)cc1 | > 60 µM (inconclusive) |

Target: FAD-linked sulfhydryl oxidase ALR (Homo sapiens, UniProt P55789)
Assay: ALR-catalysed DTT oxidation blockers – biochemical, H2O2 detection, luminescence, cherry-pick, dose response (AID 493248)
Details: not given

Chain of FAD-linked sulfhydryl oxidase ALR (P55789 whole entry): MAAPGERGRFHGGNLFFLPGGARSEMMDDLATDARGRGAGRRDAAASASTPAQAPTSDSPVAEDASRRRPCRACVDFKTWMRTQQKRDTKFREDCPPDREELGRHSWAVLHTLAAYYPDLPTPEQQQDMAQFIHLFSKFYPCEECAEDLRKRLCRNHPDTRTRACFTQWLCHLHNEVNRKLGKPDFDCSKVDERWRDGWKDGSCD

| SMILES | AC50 |
| --- | --- |
| COc1cc(/C=C/c2cc(C(=O)O)c3ccccc3n2)cc(OC)c1O | 0.141 µM (active) |
| O=C(Nc1nc(-c2ccccc2)ns1)c1cccs1 | 81 µM (active) |
| O=C(Nc1c(C(=O)O)[nH]c2ccccc12)NC1CCCCC1 | 1.26 µM (active) |
| Fc1ccc(Nc2c3c(nc4ccccc24)CCC3)cc1 | 6.31 µM (active) |
| CC1CCC2C(C1)Nc1c(C(=O)O)cccc1C2(C)C (stereo unspecified) | 4.55 µM (active) |
| Cc1cc(S(=O)(=O)Nc2ccc(N(C)C)cc2)c(C)s1 | 0.704 µM (active) |
| Cc1cc(C)cc(N2C(=O)CSC2c2ccccn2)c1 (stereo unspecified) | 0.731 µM (active) |
| COc1ccc(N2C(=O)CSC2c2ccccc2[N+](=O)[O-])cc1 (stereo unspecified) | 4.55 µM (active) |
| CCN(CC)c1ccc(CN2CCC(C(=O)NCc3ccc(C)cc3)CC2)cc1 | 5.7 µM (active) |
| CCN(CC)S(=O)(=O)c1ccc(/N=N/c2c(C)[nH]n(C(N)=S)c2=O)cc1 | 0.782 µM (active) |
| COc1cc(/C=N/NC(=O)c2cccc(N3CCCC3=O)c2)ccc1O | 2.71 µM (active) |

Test system: INS1
Assay: INS-1E survival protection against cytokine death – cell-based, luminescence, retest, dose response (AID 449756);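 further: cell death triggered by IL-1 beta plus TNF-alpha plus IFN-gamma mixture; protective hits raise ATP signal compared with cytokine alone wells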
Assay type: functional
Details: Rattus norvegicus

| SMILES | AC50 |
| --- | --- |
| CCOC(=O)N1CCN(S(=O)(=O)c2ccc(C(=O)NNc3nc4ccc(Cl)cc4s3)cc2)CC1 | 3.39 µM (active) |
| O=[N+]([O-])c1cccc(-c2cn3nc(-c4ccccc4)c(-c4ccccc4)nc3n2)c1 | 11 µM (active) |
| Brc1ccc(-[n+]2c(-c3ccccc3)cc(-c3ccccc3)cc2-c2ccccc2)cc1.[O-][Cl+3]([O-])([O-])[O-] | 2.04 µM (active) |

Target: T3, Protein skinhead-1 (Caenorhabditis elegans, UniProt P34707)
T3 sequence (P34707 whole entry): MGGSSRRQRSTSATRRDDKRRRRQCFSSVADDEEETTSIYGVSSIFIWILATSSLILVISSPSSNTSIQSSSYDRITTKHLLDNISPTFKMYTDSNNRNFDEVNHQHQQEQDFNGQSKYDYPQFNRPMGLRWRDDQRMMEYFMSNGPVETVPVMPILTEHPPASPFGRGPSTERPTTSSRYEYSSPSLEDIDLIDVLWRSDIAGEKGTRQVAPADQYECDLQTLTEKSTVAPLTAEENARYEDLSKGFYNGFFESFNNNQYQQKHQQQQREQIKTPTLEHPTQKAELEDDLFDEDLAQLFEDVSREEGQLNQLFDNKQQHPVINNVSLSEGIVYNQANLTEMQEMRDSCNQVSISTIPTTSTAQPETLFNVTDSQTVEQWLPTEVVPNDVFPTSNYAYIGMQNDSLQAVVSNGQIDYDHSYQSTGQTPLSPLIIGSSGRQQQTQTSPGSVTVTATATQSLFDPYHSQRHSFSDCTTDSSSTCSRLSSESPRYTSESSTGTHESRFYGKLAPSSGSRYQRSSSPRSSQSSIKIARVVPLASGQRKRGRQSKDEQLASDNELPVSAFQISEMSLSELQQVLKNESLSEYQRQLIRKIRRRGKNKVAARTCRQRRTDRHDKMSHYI
Assay type: functional
Details: not given

| SMILES | IC50 |
| --- | --- |
| Cc1ccc(S(=O)(=O)N2CC=C(c3c(C)n(C)c4ccccc34)CC2)cc1 | > 100 µM (inactive) |
| CN1C(=O)N(c2ccccc2)C(Nc2nncs2)C1(C)C (stereo unspecified) | > 100 µM (inactive) |
| Cc1cc(C)c(OCCOCCN2CCNCC2)c(C)c1 | > 100 µM (inactive) |
| Cc1cc(NS(=O)(=O)c2ccc(NC(=O)c3cc(-c4cccnc4)nc4ccc(Cl)cc34)cc2)no1 | > 100 µM (inactive) |
| CCCCn1ccnc1C(=O)c1cccc(S(=O)(=O)N2c3ccccc3CC2C)c1 (stereo unspecified) | > 100 µM (inactive) |
| Cc1ccc(CSCC(=O)N2CCOCC2)cc1 | > 100 µM (inactive) |
| COc1ccc(-c2nn(CC(=O)Nc3ccc(Cl)c(Cl)c3)c(=O)c3ccccc23)cc1 | > 100 µM (inactive) |
| O=C(NC1CCN(C(=S)Nc2ccc(Cl)cc2)CC1)c1ccco1 | > 100 µM (inactive) |
| CCCS(=O)(=O)NCc1ccc2c(c1)cc(C)n2C | > 100 µM (inactive) |
| COC(=O)c1c(-c2ccccc2)noc1-c1ccccc1 | 58.6 µM (inactive) |
| COc1ccc(C2(c3ccc(OC)cc3)NC(=O)N(CC(=O)NC3CCS(=O)(=O)C3)C2=O)cc1 (stereo unspecified) | > 100 µM (inactive) |
| O=[N+]([O-])c1cc2c(cc1Br)-c1ccccc1C2 | > 100 µM (inactive) |

Target: T4, Rac GTPase-activating protein 1 (Homo sapiens, UniProt Q9H0H5)
T4 sequence (Q9H0H5 whole entry): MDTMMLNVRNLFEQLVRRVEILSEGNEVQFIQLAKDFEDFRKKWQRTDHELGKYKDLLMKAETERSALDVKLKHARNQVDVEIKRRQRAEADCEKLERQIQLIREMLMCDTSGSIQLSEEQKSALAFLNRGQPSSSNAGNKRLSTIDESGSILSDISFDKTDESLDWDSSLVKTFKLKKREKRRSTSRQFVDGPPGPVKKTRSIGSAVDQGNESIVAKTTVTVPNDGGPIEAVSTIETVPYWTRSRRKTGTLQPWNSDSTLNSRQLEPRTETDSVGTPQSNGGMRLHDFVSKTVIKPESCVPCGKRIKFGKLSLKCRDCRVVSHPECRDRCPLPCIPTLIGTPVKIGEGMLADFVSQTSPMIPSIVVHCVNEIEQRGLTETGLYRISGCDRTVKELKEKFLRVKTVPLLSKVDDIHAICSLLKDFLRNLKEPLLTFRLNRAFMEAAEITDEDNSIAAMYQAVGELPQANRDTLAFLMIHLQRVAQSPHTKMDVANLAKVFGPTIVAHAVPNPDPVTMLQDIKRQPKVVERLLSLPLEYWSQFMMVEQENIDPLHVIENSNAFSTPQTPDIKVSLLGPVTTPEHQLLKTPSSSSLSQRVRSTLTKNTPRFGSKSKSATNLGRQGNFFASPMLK
Assay: blockers of MgcRacGAP-driven Rac1 GTP hydrolysis – biochemical, ADP Hunter fluorescence, primary and confirmatory, confirmation (AID 624330)
Assay type: functional
Details: not given

| SMILES | IC50 |
| --- | --- |
| COc1cc(/C=N/NC(=O)c2cccc(N3CCCC3=O)c2)ccc1O | 30.9 µM (active) |

Target: Paired box protein Pax-8 (Homo sapiens, UniProt Q06710)
Assay: PAX8 transcriptional activity inhibition in RMG-I – RMG-I cells, luciferase, cherry-pick, dose response (AID 687027);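 further: luciferase reporter driven by Pax8 target thyroperoxidase promoter measured by SteadyGlo luminescence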
Assay type: functional, cell-based
Details: not given

Chain of Paired box protein Pax-8 (Q06710 whole entry): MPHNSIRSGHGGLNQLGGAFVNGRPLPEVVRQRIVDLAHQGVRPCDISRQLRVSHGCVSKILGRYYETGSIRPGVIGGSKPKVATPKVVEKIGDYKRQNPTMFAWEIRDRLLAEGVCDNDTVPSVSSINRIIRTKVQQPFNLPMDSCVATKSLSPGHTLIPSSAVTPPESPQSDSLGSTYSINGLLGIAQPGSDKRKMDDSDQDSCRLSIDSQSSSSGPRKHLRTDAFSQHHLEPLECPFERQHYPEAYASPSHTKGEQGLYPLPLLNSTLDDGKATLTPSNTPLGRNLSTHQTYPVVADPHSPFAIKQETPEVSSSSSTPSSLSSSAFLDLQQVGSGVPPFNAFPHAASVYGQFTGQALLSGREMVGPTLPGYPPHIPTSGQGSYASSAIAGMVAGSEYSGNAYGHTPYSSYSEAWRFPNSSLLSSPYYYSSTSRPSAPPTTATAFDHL

| SMILES | AC50 |
| --- | --- |
| CN1c2ccc(-c3ccc(C#N)cc3)cc2[C@@H]2[C@@H](CCN2C(=O)NC2CCCCC2)[C@@H]1CO | 19.9 µM (active) |
| C[C@@H]1CCCCO[C@@H](CN(C)C(=O)Cc2ccccc2)[C@@H](C)CN([C@@H](C)CO)C(=O)c2cc(NC(=O)Nc3ccc(C(F)(F)F)cc3)ccc2O1 | 4.87 µM (active) |
| C[C@@H]1CN([C@H](C)CO)C(=O)c2cc(NC(=O)Nc3ccccc3)ccc2O[C@@H](C)CCCCO[C@H]1CN(C)Cc1ccc(Cl)c(Cl)c1 | 7.42 µM (active) |
